The values below come from patent publication US8524876B2, “RNAi molecule targeting thymidylate synthase and application thereof” (Delta-Fly Pharma, Inc., priority 2009, dated 2013).

For the series, the system named is TS mRNA. The series is described as follows: Inhibition of TS expression by siRNA in DLD-1/5FU cells, Taqman real-time PCR. Type of series: cell-based, human. As to conditions: 72 hours after transfection; for effects of inhibiting TS expression (in words): siRNA 25 nM. As for the experimental part: The DLD-1/5FU human colorectal cancer cell lines (Int. J. Oncol., 2000; 17: 277-83) that had been resported to be resistant to 5-FU were cultured in a 6-cm culture dish for 24 hours until the cells reached 50% to 60% confluence.
Subsequently, siRNA molecules (i.e., TS-siRNA1 molecules (sense strand: SEQ ID NO: 1; antisense strand: SEQ ID NO: 2), TS-siRNA2 molecules (sense strand: SEQ ID NO: 3; antisense strand: SEQ ID NO: 4), and TS-siRNA3 molecules (sense strand: SEQ ID NO: 5; antisense strand: SEQ ID NO: 6)) were chemically synthesized, and 2.5 ml of a solution containing each of the above siRNA molecules (final concentration: 25 nM) and 25 μl of TransIT-TKO Transfection Reagent (Minis) was transfected into the above cells in accordance with a conventional technique. Scrambled siRNA (TS-Scra1) was used as a negative control.
The effects of siRNA molecules on inhibition of TS expression were inspected via Taqman real-time PCR (ABI PRISM 7700 Sequence Detection System; Applied Biosystems) 72 hours after transfection. The Assays-on-Demand Gene Expression Assay Mix (assay ID Hs00426591_ml; PCR product size: 87 bp; Applied Biosystems) was used for TS primers and probes. GAPDH was used as the internal standard (Assays-on-Demand Gene Expression System; assay ID: Hs99999905_ml; PCR product size: 122 bp; Applied Biosystems).
Background: Real-time PCR tracks product formation cycle by cycle.

Consider “TS-siRNA3: chemically synthesized siRNA targeting TS; sense strand SEQ ID NO: 5, antisense strand SEQ ID NO: 6 (sense CGAUCAUGAUGUAGAGUGU; antisense ACACUCUACAUCAUGAUCG; listed as RNA, chemistry not given here)”, for which the “effects of inhibiting TS expression (in words)” value is listed as “exhibited effects of inhibiting TS expression”.

As to “TS-siRNA1: chemically synthesized siRNA targeting TS; sense strand SEQ ID NO: 1, antisense strand SEQ ID NO: 2 (sense GUAACACCAUCGAUCAUGA; antisense UCAUGAUCGAUGGUGUUAC; listed as RNA, chemistry not given here)”, the “effects on inhibition of TS expression” value (siRNA final concentration 25 nM, GAPDH internal standard) came out at 83.5±1.3%. On to “TS-siRNA2: chemically synthesized siRNA targeting TS; sense strand SEQ ID NO: 3, antisense strand SEQ ID NO: 4 (sense GAAUACAGAGAUAUGGAAU; antisense AUUCCAUAUCUCUGUAUUC; listed as RNA, chemistry not given here)”, for which the “effects of inhibiting TS expression (in words)” value is “exhibited effects of inhibiting TS expression”.
